Experiments:
[1] = target: T1, Amine oxidase [flavin-containing] A (Homo sapiens, UniProt P21397); experiment: Inhibition of recombinant human MAO-A expressed in baculovirus infected insect cells using kynuramine as substrate at 10 uM by fluorescence based method relative to control; conditions: Insect cell
T1 sequence (P21397 whole entry): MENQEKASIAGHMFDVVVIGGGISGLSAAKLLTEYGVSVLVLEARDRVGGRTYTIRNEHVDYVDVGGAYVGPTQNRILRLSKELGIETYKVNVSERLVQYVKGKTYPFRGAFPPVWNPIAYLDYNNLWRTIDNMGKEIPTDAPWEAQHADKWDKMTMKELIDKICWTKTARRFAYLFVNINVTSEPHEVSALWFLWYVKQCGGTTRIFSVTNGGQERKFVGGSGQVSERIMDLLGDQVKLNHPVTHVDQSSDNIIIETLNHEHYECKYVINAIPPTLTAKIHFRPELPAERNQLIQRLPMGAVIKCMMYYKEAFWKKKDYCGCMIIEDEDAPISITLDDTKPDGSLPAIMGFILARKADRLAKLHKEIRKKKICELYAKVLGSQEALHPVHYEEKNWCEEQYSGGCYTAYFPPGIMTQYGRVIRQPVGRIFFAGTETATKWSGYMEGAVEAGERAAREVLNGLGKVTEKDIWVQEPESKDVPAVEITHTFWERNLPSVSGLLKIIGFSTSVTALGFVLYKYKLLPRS

[2] = target: T2, Amine oxidase [flavin-containing] B (Homo sapiens, UniProt P27338); experiment: Inhibition of recombinant human MAO-B expressed in baculovirus infected insect cells using kynuramine as substrate at 10 uM by fluorescence based method relative to control; conditions: Insect cell
T2 sequence (P27338 whole entry): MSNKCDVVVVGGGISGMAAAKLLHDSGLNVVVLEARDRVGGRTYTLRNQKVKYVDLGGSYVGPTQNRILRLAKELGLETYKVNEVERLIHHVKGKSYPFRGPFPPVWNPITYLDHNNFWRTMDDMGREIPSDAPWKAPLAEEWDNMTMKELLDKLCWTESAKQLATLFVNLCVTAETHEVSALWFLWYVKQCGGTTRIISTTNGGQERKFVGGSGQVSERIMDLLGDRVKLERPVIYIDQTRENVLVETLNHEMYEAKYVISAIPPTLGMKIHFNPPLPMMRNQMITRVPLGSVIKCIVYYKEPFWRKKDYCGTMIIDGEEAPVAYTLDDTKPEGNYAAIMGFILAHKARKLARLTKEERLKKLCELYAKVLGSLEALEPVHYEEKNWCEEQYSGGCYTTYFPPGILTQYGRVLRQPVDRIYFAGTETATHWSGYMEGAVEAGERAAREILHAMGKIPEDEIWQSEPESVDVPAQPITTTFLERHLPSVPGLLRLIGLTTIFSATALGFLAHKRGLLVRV

[3] = target: T2, Amine oxidase [flavin-containing] B; experiment: biochemical; assay type: cell-based, Insect cell
Description: Inhibition of recombinant human MAO-B expressed in baculovirus infected insect cells using kynuramine as substrate by fluorescence based method

[4] = target: T2, Amine oxidase [flavin-containing] B; experiment: Inhibition of human MAO-B incubated for 30 mins by Amplex Red assay
[5] = target: T1, Amine oxidase [flavin-containing] A; experiment: biochemical
Description: Inhibition of recombinant human MAO-A expressed in baculovirus infected insect cells using kynuramine as substrate by fluorescence based method

[6] = target: T3, Amine oxidase [flavin-containing] B (Rattus norvegicus, UniProt P19643); experiment: Inhibition of rat brain mitochondria MAO-B using benzylamine as substrate incubated for 30 mins by absorbance based assay
T3 sequence (P19643 whole entry): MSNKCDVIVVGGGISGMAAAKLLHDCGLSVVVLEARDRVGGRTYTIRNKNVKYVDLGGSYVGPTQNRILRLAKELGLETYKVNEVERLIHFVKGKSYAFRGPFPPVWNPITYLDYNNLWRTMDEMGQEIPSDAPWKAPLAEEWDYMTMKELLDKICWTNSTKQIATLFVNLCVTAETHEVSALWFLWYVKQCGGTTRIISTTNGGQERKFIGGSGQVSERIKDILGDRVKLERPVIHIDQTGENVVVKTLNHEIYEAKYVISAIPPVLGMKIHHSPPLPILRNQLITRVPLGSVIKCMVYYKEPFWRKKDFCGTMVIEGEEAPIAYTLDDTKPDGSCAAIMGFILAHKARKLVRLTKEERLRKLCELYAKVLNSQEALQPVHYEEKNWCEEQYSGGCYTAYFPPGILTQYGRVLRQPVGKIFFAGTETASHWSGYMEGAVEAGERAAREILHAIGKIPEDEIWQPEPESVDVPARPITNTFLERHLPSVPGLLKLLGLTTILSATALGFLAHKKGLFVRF

[7] = target: Microtubule-associated protein tau (Homo sapiens, UniProt P10636); experiment: Inhibition of GFP/RFP-fused tau oligomerization in human SH-SY5Y cells incubated for 2 hrs by FRET assay; assay type: cell-based
[8] = Permeability of compound by PAMPA

Chain of Microtubule-associated protein tau (P10636 whole entry, the tested form may be a part): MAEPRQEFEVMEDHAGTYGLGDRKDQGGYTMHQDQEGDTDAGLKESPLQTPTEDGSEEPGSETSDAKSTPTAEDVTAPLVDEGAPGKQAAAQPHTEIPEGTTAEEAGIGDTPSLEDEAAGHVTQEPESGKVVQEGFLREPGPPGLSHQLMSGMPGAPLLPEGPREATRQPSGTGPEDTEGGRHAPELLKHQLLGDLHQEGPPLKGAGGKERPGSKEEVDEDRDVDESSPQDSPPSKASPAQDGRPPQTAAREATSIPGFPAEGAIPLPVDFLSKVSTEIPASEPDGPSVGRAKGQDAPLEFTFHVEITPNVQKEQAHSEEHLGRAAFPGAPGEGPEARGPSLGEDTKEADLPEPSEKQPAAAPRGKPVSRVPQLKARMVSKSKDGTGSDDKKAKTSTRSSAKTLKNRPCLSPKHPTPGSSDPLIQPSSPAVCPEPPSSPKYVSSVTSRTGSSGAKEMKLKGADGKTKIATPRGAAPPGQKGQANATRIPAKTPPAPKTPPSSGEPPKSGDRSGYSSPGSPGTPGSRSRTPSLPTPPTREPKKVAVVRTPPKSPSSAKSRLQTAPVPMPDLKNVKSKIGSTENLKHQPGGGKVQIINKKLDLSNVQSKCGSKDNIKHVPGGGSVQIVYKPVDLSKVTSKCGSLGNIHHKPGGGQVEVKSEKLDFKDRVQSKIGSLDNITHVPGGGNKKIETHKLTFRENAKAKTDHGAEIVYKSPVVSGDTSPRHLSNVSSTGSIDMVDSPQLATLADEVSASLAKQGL

inhibition at 10 µM [1] [%]	Compound	also measured
26	COc1ccc(CNC(=O)c2nc3ccc(O)cc3s2)c(OC)c1	–
15	O=C(NCc1ccc([N+](=O)[O-])cc1)c1nc2ccc(O)cc2s1	–
59	O=C(NCC#Cc1ccccc1)c1nc2ccc(O)cc2s1	–
19	Cc1cccc(CNC(=O)c2nc3ccc(O)cc3s2)c1	–
22	Cc1ccc(CNC(=O)c2nc3ccc(O)cc3s2)cc1	–
18	O=C(NCc1ccccc1)c1nc2ccc(O)cc2s1	IC50 [3]: 552 nM
52	O=C(NCc1ccc(F)cc1)c1nc2ccc(O)cc2s1	–
25	COc1ccccc1CNC(=O)c1nc2ccc(O)cc2s1	–
16	O=C(NCc1ccccc1F)c1nc2ccc(O)cc2s1	–
28	O=C(NCc1cccnc1)c1nc2ccc(O)cc2s1	inhibition at 10 µM [2]: 48%
35	O=C(NCc1ccc(F)cc1F)c1nc2ccc(O)cc2s1	–
22	COc1ccc(CNC(=O)c2nc3ccc(O)cc3s2)cc1	inhibition at 10 µM [2]: 53%
28	O=C(NCc1cccc(Cl)c1)c1nc2ccc(O)cc2s1	–
32	COc1ccc(CNC(=O)c2nc3ccc(O)cc3s2)cc1F	–
15	Cc1ccccc1CNC(=O)c1nc2ccc(O)cc2s1	–
24	O=C(NCc1ccccc1Cl)c1nc2ccc(O)cc2s1	–
18	O=C(NCc1ccc(-c2cccs2)cc1)c1nc2ccc(O)cc2s1	inhibition at 10 µM [2]: 30%
10	O=C(NCc1ccco1)c1nc2ccc(O)cc2s1	inhibition at 10 µM [2]: 41%
21	O=C(NCc1ccc(Cl)cc1)c1nc2ccc(O)cc2s1	–
30	O=C(NCc1ccc(-c2ccccc2)cc1)c1nc2ccc(O)cc2s1	–
29	O=C(NCc1ccc(F)c(F)c1)c1nc2ccc(O)cc2s1	–
19	CC(C)(C)c1ccc(CNC(=O)c2nc3ccc(O)cc3s2)cc1	inhibition at 10 µM [2]: 44%
19	O=C(NCc1cccc(F)c1F)c1nc2ccc(O)cc2s1	–
33	O=C(NCc1cccs1)c1nc2ccc(O)cc2s1	–
11	COc1cccc(CNC(=O)c2nc3ccc(O)cc3s2)c1OC	–
18	COc1cccc(CNC(=O)c2nc3ccc(O)cc3s2)c1	–
36	O=C(NCCc1ccccc1)c1nc2ccc(O)cc2s1	EC50 [7]: 10500 nM
51	O=C(NCCc1cc2ccccc2[nH]1)c1nc2ccc(O)cc2s1	EC50 [7]: 7520 nM
8	O=C(NCc1cccc(F)c1)c1nc2ccc(O)cc2s1	–

Further lines, the molecule ahead of its results:

Compound	inhibition at 10 µM [1] [%]	also measured
O=C(NC1CC1)c1nc2ccc(O)cc2s1	13	inhibition at 10 µM [2]: 52%
O=C(NC1CCCCC1)c1nc2ccc(O)cc2s1	32	–
COc1ccc2sc(SC(=O)N/N=C\c3csc([N+](=O)[O-])c3)nc2c1	–	IC50 [4]: 60 nM
COc1cc(CNC(=O)c2nc3ccc(O)cc3s2)cc(OC)c1	43	–
Cc1cc(C)cc(CNC(=O)c2nc3ccc(O)cc3s2)c1	26	–
O=C(NC1CCCCC1)c1nc2ccccc2s1	26	–
COc1ccc(CNC(=O)c2nc3ccc(O)cc3s2)cc1OC	13	–
O=C(NCc1cc(C(F)(F)F)cc(C(F)(F)F)c1)c1nc2ccc(O)cc2s1	26	–
COc1ccc2nc(C(=O)NC3CCCCC3)sc2c1	> 60	IC50 [5]: 3820 nM
O=C(c1nc2ccc(O)cc2s1)N1CCCCC1	16	inhibition at 10 µM [2]: 31%
O=C(c1nc2ccc(O)cc2s1)N1CCc2ccccc2C1	17	–
O=C(NCC1CCCCC1)c1nc2ccc(O)cc2s1	32	–
O=C(NC1CCCC1)c1nc2ccc(O)cc2s1	35	–
O=C(c1nc2ccc(O)cc2s1)N1Cc2ccc(Cl)cc2C1	21	–
CCCCCCNC(=O)c1nc2ccc(O)cc2s1	37	–
O=C(Nc1nc2ccc(O)cc2s1)C1CCCCC1	> 80	IC50 [5]: 1920 nM
O=C(N/N=C(\c1ccccc1)c1ccc(Cl)cc1)Nc1nc2ccc([N+](=O)[O-])cc2s1	–	IC50 [6]: 4 nM
O=C(NCC(c1ccccc1)c1ccccc1)c1nc2ccc(O)cc2s1	13	inhibition at 10 µM [2]: 43%
CCn1cc(C(=O)O)c(=O)c2cc(F)c(N3CCNCC3)cc21 [NORFLOXACIN]	–	Papp [8]: 1.25 ×10⁻⁶ cm/s
